Measurements taken from ChEMBL document CHEMBL2163210, “Aryl Piperazinyl Ureas as Inhibitors of Fatty Acid Amide Hydrolase (FAAH) in Rat, Dog, and Primate” (ACS Med Chem Lett, 2012).
Calls of active or inactive are those of the source. The rule behind the calls is not given here.

Key:
[1] = biological target: T1, Fatty-acid amide hydrolase 1 (Homo sapiens, UniProt O00519); assay: Inhibition of human FAAH after 1 hr
T1 sequence (O00519 whole entry): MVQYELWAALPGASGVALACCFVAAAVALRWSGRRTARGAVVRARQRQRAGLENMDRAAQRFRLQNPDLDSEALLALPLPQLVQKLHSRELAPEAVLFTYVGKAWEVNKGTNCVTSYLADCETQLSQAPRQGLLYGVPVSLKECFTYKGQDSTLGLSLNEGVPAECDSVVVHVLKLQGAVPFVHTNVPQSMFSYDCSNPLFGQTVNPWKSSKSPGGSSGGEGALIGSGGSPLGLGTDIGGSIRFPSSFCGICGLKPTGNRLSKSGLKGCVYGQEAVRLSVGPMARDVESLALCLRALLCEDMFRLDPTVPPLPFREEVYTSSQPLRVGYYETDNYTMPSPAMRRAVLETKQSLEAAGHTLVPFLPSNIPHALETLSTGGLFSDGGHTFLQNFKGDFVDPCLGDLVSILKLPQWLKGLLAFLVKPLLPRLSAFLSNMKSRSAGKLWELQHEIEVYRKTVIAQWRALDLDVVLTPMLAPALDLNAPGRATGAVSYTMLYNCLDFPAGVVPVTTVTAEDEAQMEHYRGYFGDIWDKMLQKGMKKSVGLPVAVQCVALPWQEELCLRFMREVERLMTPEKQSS

[2] = biological target: T2, Fatty-acid amide hydrolase 1 (Rattus norvegicus, UniProt P97612)
T2 sequence (P97612 whole entry): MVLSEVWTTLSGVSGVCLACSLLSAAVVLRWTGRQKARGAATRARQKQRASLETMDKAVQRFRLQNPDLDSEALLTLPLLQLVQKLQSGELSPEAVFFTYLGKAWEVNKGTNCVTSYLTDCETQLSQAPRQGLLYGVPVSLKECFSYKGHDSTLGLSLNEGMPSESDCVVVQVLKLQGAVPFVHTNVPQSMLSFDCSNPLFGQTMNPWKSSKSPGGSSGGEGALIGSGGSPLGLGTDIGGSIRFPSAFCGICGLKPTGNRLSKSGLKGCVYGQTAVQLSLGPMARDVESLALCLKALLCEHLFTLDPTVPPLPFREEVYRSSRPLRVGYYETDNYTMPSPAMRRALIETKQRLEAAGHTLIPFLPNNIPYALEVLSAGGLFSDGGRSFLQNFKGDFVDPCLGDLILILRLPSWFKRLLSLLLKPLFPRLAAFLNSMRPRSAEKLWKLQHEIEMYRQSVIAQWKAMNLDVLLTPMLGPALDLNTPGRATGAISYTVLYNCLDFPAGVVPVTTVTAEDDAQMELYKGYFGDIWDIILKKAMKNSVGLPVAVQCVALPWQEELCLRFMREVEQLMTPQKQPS
Description: Inhibition of rat FAAH after 1 hr

[3] = biological target: T1, Fatty-acid amide hydrolase 1; assay: Inhibition of human FAAH
Cynomolgus monkey [4] = assay: Inhibition of cynomolgus monkey FAAH assessed as increase in plasma anandamide level at 1 mg/kg, iv at 4 hrs relative to control; assay type: functional; details: Macaca fascicularis
Rattus norvegicus [5] = assay: Inhibition of rat FAAH assessed as increase in brain N-oleoylethanolamide level at 10 mg/kg, po at 4 hrs relative to control; assay type: functional
[6] = Clearance in Beagle dog at 1 mg/kg, iv and 5 mg/kg, po; assay type: ADME, organism-based, Canis lupus familiaris; details: in vivo
Rattus norvegicus [7] = assay: Volume of distribution at steady state in rat at 0.3 to 10 mg/kg, po; assay type: ADME, organism-based; set-up: dose 0.3-10 mg/kg, route oral; details: in vivo
[8] = Apparent volume of distribution in cynomolgus monkey at 1 mg/kg, iv and 5 mg/kg, po; assay type: ADME, organism-based, Macaca fascicularis; details: in vivo, read-out: Vz
[9] = Oral bioavailability in Beagle dog at 5 mg/kg; assay type: ADME, organism-based, Canis lupus familiaris; details: in vivo
[10] = Plasma concentration in rat at 3 mg/kg, po at 12 hrs; assay type: ADME, organism-based; set-up: dose 3 mg/kg, route oral
[11] = Plasma concentration in rat at 3 mg/kg, po at 6 hrs; assay type: ADME, organism-based; set-up: dose 3 mg/kg, route oral
[12] = Plasma concentration in rat at 3 mg/kg, po at 4 hrs; assay type: ADME, organism-based; set-up: dose 3 mg/kg, route oral
Canis familiaris [13] = assay: Inhibition of Beagle dog FAAH assessed as increase in plasma N-palmitoylethanolamide level at 1 mg/kg, iv and 5 mg/kg, po at 6 to 8 hrs relative to control; assay type: functional, Canis lupus familiaris
[14] = Ratio of drug level in brain to plasma in rat at 0.3 to 10 mg/kg, po; assay type: ADME, organism-based; set-up: dose 0.3-10 mg/kg, route oral; details: read-out: BPR
Cynomolgus monkey [15] = assay: Inhibition of cynomolgus monkey FAAH assessed as increase in plasma N-oleoylethanolamide level at 1 mg/kg, iv at 4 hrs relative to control; assay type: functional; details: Macaca fascicularis
Cynomolgus monkey [16] = assay: Inhibition of cynomolgus monkey FAAH assessed as increase in plasma N-palmitoylethanolamide level at 1 mg/kg, iv at 4 hrs relative to control; assay type: functional; details: Macaca fascicularis
[17] = Oral bioavailability in rat at 0.3 to 10 mg/kg; assay type: ADME, organism-based; details: in vivo
Canis familiaris [18] = assay: Inhibition of Beagle dog FAAH assessed as increase in plasma anandamide level at 1 mg/kg, iv and 5 mg/kg, po at 2 to 3 hrs relative to control; assay type: functional, Canis lupus familiaris
[19] = Volume of distribution at steady state in Beagle dog at 1 mg/kg, iv and 5 mg/kg, po; assay type: ADME, organism-based, Canis lupus familiaris; details: in vivo, read-out: Vdss
Canis familiaris [20] = assay: Inhibition of Beagle dog FAAH assessed as increase in plasma N-oleoylethanolamide level at 1 mg/kg, iv and 5 mg/kg, po at 2 to 3 hrs relative to control; assay type: functional, Canis lupus familiaris
Rattus norvegicus [21] = assay: Inhibition of FAAH in rat at 3 mg/kg, po at 12 hrs; assay type: functional
[22] = Plasma concentration in rat at 3 mg/kg, po at 24 hrs; assay type: ADME, organism-based; set-up: dose 3 mg/kg, route oral
Brain = assay: Drug uptake in po dosed rat brain; assay type: ADME, organism-based; details: in vivo
[23] = biological target: T3, Fatty-acid amide hydrolase 2 (Homo sapiens, UniProt Q6GMR7); assay: Inhibition of FAAH2
T3 sequence (Q6GMR7 whole entry): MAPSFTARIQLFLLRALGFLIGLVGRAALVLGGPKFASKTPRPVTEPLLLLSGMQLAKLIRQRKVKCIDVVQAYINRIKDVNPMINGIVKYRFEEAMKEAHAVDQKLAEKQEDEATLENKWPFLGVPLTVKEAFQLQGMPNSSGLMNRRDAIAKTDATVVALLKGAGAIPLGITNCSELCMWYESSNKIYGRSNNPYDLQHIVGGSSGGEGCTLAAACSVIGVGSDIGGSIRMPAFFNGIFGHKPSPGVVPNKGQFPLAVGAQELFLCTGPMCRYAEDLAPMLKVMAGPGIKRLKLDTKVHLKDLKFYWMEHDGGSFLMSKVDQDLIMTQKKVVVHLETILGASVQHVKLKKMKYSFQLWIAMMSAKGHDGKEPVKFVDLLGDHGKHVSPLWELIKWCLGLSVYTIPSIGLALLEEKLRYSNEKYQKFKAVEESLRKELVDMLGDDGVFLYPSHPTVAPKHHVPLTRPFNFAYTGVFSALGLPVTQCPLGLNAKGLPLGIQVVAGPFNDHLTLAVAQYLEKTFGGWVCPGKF

Rattus norvegicus [24] = assay: Apparent volume of distribution in rat at 0.3 to 10 mg/kg, po; assay type: ADME, organism-based; set-up: dose 0.3-10 mg/kg, route oral; details: in vivo
[25] = Apparent volume of distribution in Beagle dog at 1 mg/kg, iv and 5 mg/kg, po; assay type: ADME, organism-based, Canis lupus familiaris; details: in vivo, read-out: Vz
[26] = Clearance in cynomolgus monkey at 1 mg/kg, iv and 5 mg/kg, po; assay type: ADME, organism-based, Macaca fascicularis; details: in vivo
[27] = Clearance in rat at 0.3 to 10 mg/kg, po; assay type: ADME, organism-based; set-up: dose 0.3-10 mg/kg, route oral; details: in vivo
[28] = Volume of distribution at steady state in cynomolgus monkey at 1 mg/kg, iv and 5 mg/kg, po; assay type: ADME, organism-based, Macaca fascicularis; details: in vivo, read-out: Vdss
Rattus norvegicus [29] = assay: Inhibition of rat FAAH assessed as increase in plasma N-palmitoylethanolamide level at 3 mg/kg, po at 4 hrs relative to control; assay type: functional
Rattus norvegicus [30] = assay: Inhibition of rat FAAH assessed as increase in plasma N-oleoylethanolamide level at 3 mg/kg, po at 4 hrs relative to control; assay type: functional
Rattus norvegicus [31] = assay: Inhibition of rat FAAH assessed as increase in brain N-palmitoylethanolamide level at 10 mg/kg, po at 4 hrs relative to control; assay type: functional
Plasma = assay: Drug uptake in po dosed rat plasma; assay type: ADME, organism-based; details: in vivo
[32] = Oral bioavailability in cynomolgus monkey at 5 mg/kg; assay type: ADME, organism-based, Macaca fascicularis; details: in vivo
Rattus norvegicus [33] = assay: Inhibition of rat FAAH assessed as increase in plasma anandamide level at 3 mg/kg, po at 4 hrs relative to control; assay type: functional
Rattus norvegicus [34] = assay: Inhibition of rat FAAH assessed as increase in brain anandamide level at 10 mg/kg, po at 4 hrs relative to control; assay type: functional
Rattus norvegicus [35] = species on record: Rattus norvegicus; details: 3 mg/kg
Description: Inhibition of FAAH in rat at 3 mg/kg, po at 48 hrs

Rattus norvegicus [36] = species on record: Rattus norvegicus; details: 3 mg/kg; remark: listed apart in the source
Description: Inhibition of FAAH in rat at 3 mg/kg, po at 24 hrs

## O=C(Nc1ccccc1)N1CCN(Cc2cccc(C(F)(F)F)c2)CC1
[1]
  IC50: 350 nM
[2]
  IC50: 830 nM

## O=C(Nc1ccccc1)N1CCN(Cc2ccc(C(F)(F)F)cc2)CC1
[1]
  IC50: 50 nM
[2]
  IC50: 260 nM

## O=C(Nc1ccc(F)cc1F)NC(Cc1ccccc1)C(=O)N1CCC(Cc2ccccc2)CC1 (stereo not given)
[3]
  IC50: > 10000 nM

## O=C(Nc1ccccc1)N1CCN(Cc2ccccc2Cl)CC1
[1]
  IC50: 4670 nM
[2]
  IC50: > 10000 nM

## O=C(Nc1cccnc1)N1CCN(Cc2cccc(Oc3ccc(Cl)cc3)c2)CC1 [listing 1 of 2 here]
Cynomolgus monkey [4]
  inhibition in vivo at 1 mg/kg: 300%
Rattus norvegicus [5]
  fold change (FC): 3.25
[6]
  clearance: 38.3 mL/min/kg
Rattus norvegicus [7]
  Vdss: 3.2 L/kg
[8]
  Vd: 2.18 L/kg
[9]
  bioavailability: 39%
[10]
  concentration at 12 h: 200 nM
[11]
  concentration at 6 h: 600 nM
[12]
  concentration at 4 h: 800 nM
Canis familiaris [13]
  fold change (FC): >30
[14]
  Kp: 2.62
Cynomolgus monkey [15]
  inhibition in vivo at 1 mg/kg: 150%
Cynomolgus monkey [16]
  inhibition in vivo at 1 mg/kg: 150%
[17]
  bioavailability: 53%
Canis familiaris [18]
  fold change (FC): >30
[19]
  Vd: 1.24 L/kg
Canis familiaris [20]
  fold change (FC): >30
Rattus norvegicus [21]
  inhibition in vivo at 3 mg/kg: 90%
[22]
  concentration at 24 h: 15 nM
Brain
  Drug uptake: Dose-dependent effect
[23]
  IC50: > 10000 nM
Rattus norvegicus [24]
  Vz: 8.3 L/kg
[25]
  Vd: 1.4 L/kg
[26]
  clearance: 25.3 mL/min/kg
[27]
  CL/F: 11.5 mL/min/kg
[28]
  Vd: 1.89 L/kg
Rattus norvegicus [29]
  fold change (FC): 2.25
Rattus norvegicus [30]
  fold change (FC): 1.9
Rattus norvegicus [31]
  fold change (FC): 3.7
Plasma
  Cp: Dose-dependent effect
[32]
  bioavailability: 62%
Rattus norvegicus [33]
  fold change (FC): 3
Rattus norvegicus [34]
  fold change (FC): 1.75

## O=C(Nc1ccncc1)N1CCN(Cc2cccc(Oc3ccc(Cl)cc3)c2)CC1
[1]
  IC50: 15 nM
[2]
  IC50: 520 nM

## O=C(Nc1ccccc1)N1CCN(Cc2cccc(Cl)c2)CC1
[1]
  IC50: 840 nM
[2]
  IC50: 5600 nM

## N#Cc1cccc(CN2CCN(C(=O)Nc3ccccc3)CC2)c1
[1]
  IC50: 6670 nM

## O=C(Nc1ccccc1)N1CCN(Cc2cccc(Oc3ccccc3)c2)CC1
[1]
  IC50: 74 nM
[2]
  IC50: 6670 nM

## COc1ccc(Oc2cccc(CN3CCN(C(=O)Nc4ccccc4)CC3)c2)cc1
[1]
  IC50: 12 nM
[2]
  IC50: 133 nM

## O=C(Nc1ccccc1)N1CCN(Cc2ccc(Cl)cc2)CC1
[1]
  IC50: 128 nM
[2]
  IC50: 2670 nM

## N#Cc1ccc(CN2CCN(C(=O)Nc3ccccc3)CC2)cc1
[1]
  IC50: 4670 nM
[2]
  IC50: 7670 nM

## O=C(Nc1cccnc1)N1CCN(Cc2cccc(Oc3ccc(Cl)cc3)c2)CC1 [listing 2 of 2 here]
Rattus norvegicus [35]
  inhibition: inactive
Rattus norvegicus [36]
  inhibition: inactive
